Source: PMC4730192, “Ligand selectivity in tachykinin and natalisin neuropeptidergic systems of the honey bee parasitic mite Varroa destructor” (Scientific Reports, 2016)
No end group written: not given here.

How the values were obtained:
[1] = target: T1, V. destructor TRP receptor (VdTRP-R) (Varroa destructor, UniProt A0A141CIT9); assay: Aequorin calcium-mobilization reporter assay, VdTRP-R transiently expressed in CHO-K1 cells with Ga16; assay type: cell-based; settings: for EC50: CHO-K1 cells, Ga16 + aequorin luminescence, 10-fold serial dilutions, logistic fitting of dose-response curves; for Agonistic activity, VdTRP-R 0.1μM: ligand 0.1 μM; for Agonistic activity, VdTRP-R 0.1μM / Agonistic activity, VdTRP-R 1μM: relative luminescence normalized by highest activity of endogenous ligand VdTRP3, 3 biological replications; for Agonistic activity, VdTRP-R 1μM: ligand 1 μM; for Receptor specificity among VdNTL-R, VdTRP-R and AmTRP-R (in words): expanded ligand test at two concentrations on the three receptors
T1 sequence (A0A141CIT9 1-437): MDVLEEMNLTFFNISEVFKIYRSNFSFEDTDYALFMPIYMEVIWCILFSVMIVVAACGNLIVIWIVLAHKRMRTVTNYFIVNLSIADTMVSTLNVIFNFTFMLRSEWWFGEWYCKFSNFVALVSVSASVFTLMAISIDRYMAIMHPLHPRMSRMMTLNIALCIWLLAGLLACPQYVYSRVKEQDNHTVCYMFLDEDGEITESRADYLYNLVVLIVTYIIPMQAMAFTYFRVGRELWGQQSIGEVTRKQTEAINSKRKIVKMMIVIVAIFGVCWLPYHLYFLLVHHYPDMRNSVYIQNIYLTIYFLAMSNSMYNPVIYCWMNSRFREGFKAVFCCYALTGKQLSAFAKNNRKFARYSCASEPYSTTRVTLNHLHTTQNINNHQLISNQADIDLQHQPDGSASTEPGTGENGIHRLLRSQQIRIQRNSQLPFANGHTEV
From the text: (§1) In this system, ligand-mediated G-protein-coupled receptor (GPCR) activation initiates calcium mobilization that is indicated by the increased luminescence of aequorin.
(§2) The PCR amplicons of the full open reading frames (ORFs) of the three receptors were initially cloned into the pGEMT easy vector (Promega) and transferred to the expression vector pcDNA3.1(+) (Invitrogen) using the common restriction enzymes in the multi-cloning site (EcoRI for AmTRPR, NotI for both VdNTLR and VdTRPR). The sequences of the inserts were confirmed by Sanger sequencing prior to heterologous expression. High-quality plasmid DNA prepared using the plasmid MIDIprep kit (Qiagen) was used for transient transfection. The methods for transient expression of aequorin and G-alpha16 in Chinese hamster ovary (CHO-K1) cells and the procedures for the assays were previously described. Thirty hours after the transfection, the cells were collected and preincubated with the coelenterazine (Invitrogen) for the functional assay as previously described. Serial dilutions (10-fold, ranging from 0.001 to 1000 nM) of the 10 endogenous ligands were used for treatment of the cells. These ten natural ligands included two […] and three […] predicted from the respective putative precursors and also included five AmTRP peptides. The elevated luminescence caused by intracellular calcium mobilization was measured for a continuous 20 seconds at every 100-ms interval. Dose response curves and EC50s of each ligand for each receptor were obtained by logistic fitting in Origin 8.6 (OriginLab).
(§3) The test ligands were mainly the NTL peptides of T. castaneum, D. melanogaster, B. mori, and Anopheles gambiae and two TRPs, TcTRP4 and DmTRP6. Two doses of each ligand were tested for each receptor: 1 and 0.1 μM for VdNTL-R and VdTRP-R and 1 and 0.01 μM for AmTRP-R.

[2] = target: T2, A. mellifera TRP receptor (AmTRP-R) (Apis mellifera, UniProt A0ACM8RFV8); assay: Aequorin calcium-mobilization reporter assay, AmTRP-R transiently expressed in CHO-K1 cells with Ga16; assay type: cell-based; settings: for EC50: CHO-K1 cells, Ga16 + aequorin luminescence, 10-fold serial dilutions, logistic fitting of dose-response curves; for Agonistic activity, AmTRP-R 0.01μM: ligand 0.01 μM; for Agonistic activity, AmTRP-R 0.01μM / Agonistic activity, AmTRP-R 1μM: relative luminescence normalized by highest activity of endogenous ligand AmTRP1, 3 biological replications; for Agonistic activity, AmTRP-R 1μM: ligand 1 μM; for Agonistic activity on AmTRP-R (in words): dose-response or expanded ligand test, 1 and 0.01 μM
T2 sequence (A0ACM8RFV8 1-421): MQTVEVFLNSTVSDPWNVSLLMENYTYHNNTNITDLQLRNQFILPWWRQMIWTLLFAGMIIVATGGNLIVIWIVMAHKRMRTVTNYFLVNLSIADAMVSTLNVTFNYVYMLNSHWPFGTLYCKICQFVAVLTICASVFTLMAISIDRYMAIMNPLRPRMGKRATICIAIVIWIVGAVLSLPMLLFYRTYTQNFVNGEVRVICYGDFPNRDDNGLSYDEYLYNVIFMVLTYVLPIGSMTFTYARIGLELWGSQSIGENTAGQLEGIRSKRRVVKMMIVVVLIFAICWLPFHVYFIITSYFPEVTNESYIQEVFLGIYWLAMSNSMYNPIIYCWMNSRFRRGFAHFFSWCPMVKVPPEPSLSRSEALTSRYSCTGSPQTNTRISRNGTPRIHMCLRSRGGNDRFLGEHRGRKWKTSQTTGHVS
From the text: as §1, §2, §3

[3] = target: T3, V. destructor NTL receptor (VdNTL-R) (Varroa destructor, UniProt A0A141CIT8); assay: Aequorin calcium-mobilization reporter assay, VdNTL-R transiently expressed in CHO-K1 cells with Ga16; assay type: cell-based; settings: for Agonistic activity, VdNTL-R 1μM: ligand 1 μM; for Agonistic activity, VdNTL-R 1μM / Agonistic activity, VdNTL-R 0.1μM: relative luminescence normalized by highest activity of endogenous ligand VdNTL1, 3 biological replications; for Agonistic activity, VdNTL-R 0.1μM: ligand 0.1 μM; for EC50: CHO-K1 cells, Ga16 + aequorin luminescence, 10-fold serial dilutions, logistic fitting of dose-response curves
T3 sequence (A0A141CIT8 1-461): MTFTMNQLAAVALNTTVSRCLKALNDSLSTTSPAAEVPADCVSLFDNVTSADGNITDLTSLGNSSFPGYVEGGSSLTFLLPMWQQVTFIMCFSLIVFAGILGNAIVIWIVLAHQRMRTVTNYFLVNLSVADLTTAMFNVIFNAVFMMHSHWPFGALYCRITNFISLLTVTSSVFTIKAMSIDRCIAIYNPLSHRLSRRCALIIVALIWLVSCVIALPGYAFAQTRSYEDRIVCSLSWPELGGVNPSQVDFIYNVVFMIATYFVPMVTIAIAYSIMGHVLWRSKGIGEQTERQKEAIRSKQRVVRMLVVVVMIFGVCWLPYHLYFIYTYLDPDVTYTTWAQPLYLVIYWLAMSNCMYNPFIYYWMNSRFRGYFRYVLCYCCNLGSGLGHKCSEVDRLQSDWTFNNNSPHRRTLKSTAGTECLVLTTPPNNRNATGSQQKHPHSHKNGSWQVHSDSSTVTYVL
From the text: as §1, §2, §3

[4] = system: pea aphid Acyrthosiphon pisum; settings: by feeding; cited from earlier work
[5] = system: cockroach TRP myotropic bioassay; settings: cited from earlier work
[6] = expanded ligand test, 1 and 0.1 μM

Substance | EC50 [1] [nM] | EC50 [2] [nM] | Agonistic activity, VdTRP-R 0.1μM [1] [RLU] | Agonistic activity, VdTRP-R 1μM [1] [RLU] | Agonistic activity, AmTRP-R 0.01μM [2] [RLU] | Agonistic activity, AmTRP-R 1μM [2] [RLU] | Agonistic activity, VdNTL-R 1μM [3] [RLU] | Agonistic activity, VdNTL-R 0.1μM [3] [RLU] | other results
AAPFHAMR-NH2 [VdTRP2] | 71 | 95 | – | – | – | – | – | – | –
AFHAMR-NH2 [VdTRP1] | 55 | 95 | – | – | – | – | – | – | –
ALMGFQGVR-NH2 [AmTRP1] | – | 0.3 | 2.5 | 34.9 | 69 | 100 | 37.1 | – | –
APMGFQGMR-NH2 [AmTRP2,3] | 250 | – | – | – | – | – | – | – | –
ASGQEEFGPFWANRa [TcNTL1, NTL peptide of T. castaneum] | – | – | 2.2 | 60.7 | 4.6 | -0.2 | 1.5 | 1 | Receptor specificity among VdNTL-R, VdTRP-R and AmTRP-R (in words) [1]: specifically activated only VdTRP-R
DLRQENDPFWGNR-NH2 [BmNTL3, NTL peptide of B. mori] | – | – | 30.7 | 83.4 | 4.7 | -0.8 | 0.1 | 0.4 | Receptor specificity among VdNTL-R, VdTRP-R and AmTRP-R (in words) [1]: specifically activated only VdTRP-R
GGVPGFVGAR-NH2 [VdNTL2] | – | 0.7 | – | – | – | – | – | – | Agonistic activity on AmTRP-R (in words) [2]: equally potent as the AmTRPs; EC50 [3]: 37 nM
GSFFGMR-NH2 [VdTRP3, GSFFGMRa] | 4.3 | 13 | 107.6 | 100 | 58 | 96.3 | 24.8 | – | –
HRNLFQVDDPFFATRa [DmNTL4, NTL peptide of D. melanogaster] | – | – | 10.3 | 70.9 | 9.5 | 79.7 | 30.4 | 0.8 | –
LQLRDLYNADDPFVPNRa [DmNTL5, NTL peptide of D. melanogaster] | – | – | 0.7 | 3.1 | 6.5 | -1.2 | 0.1 | 0.2 | –
NPRWEFRGKFVGVR-NH2 [AmTRP7] | 93 | 0.8 | – | – | – | – | – | – | Lower sensitivity of VdTRP-R relative to VdTRP3 ([1]; fold lower sensitivity versus VdTRP3): > 10 ×
SIGGPAPGFVGAR-NH2 [VdNTL1] | – | 4.5 | 1.3 | 18.6 | 60.2 | 98.4 | 100 | 96.2 | Difference in activity on AmTRP-R between VdNTL1 and VdNTL2 ([2]; VdNTL1 compared with VdNTL2): approximately 6 ×; EC50 [3]: 26 nM
TEENPFWANR-NH2 [BmNTL5, NTL peptide of B. mori] | – | – | 7.3 | 61.2 | 6 | -0.2 | 0.4 | 0.3 | Receptor specificity among VdNTL-R, VdTRP-R and AmTRP-R (in words) [1]: specifically activated only VdTRP-R
pQA[Aib]SGFL[Aib]VRamide [compound 1888] | – | – | 0.3 | 1 | -0.4 | 62.9 | 1.9 | -0.4 | Agonistic activity on VdTRP-R (in words) [1, 6]: failing to show agonistic activity; Oral aphicidal activity [4]: potent oral aphicidal activity; Activity in a cockroach TRP myotropic bioassay [5]: highly potent activity; Agonistic activity on AmTRP-R (in words) [2]: some activity; Agonistic activity on VdNTL-R (in words) [3, 6]: failing to show agonistic activity
